These are literature values, as cited in US20180369425A1, “LINKED AND OTHER pH-TRIGGERED COMPOUNDS” (priority 2017, published 2018).

The conditions of data set [1]: solvents listed; cited from earlier work.
The test system of data set [2] is HeLa cells. Particulars: two hours, up to 2 μM; cited from earlier work.

Turning to `C#CCNC(=O)CCCCC[N+]1=C(/C=C/C=C/C=C/C=C2\N(CCCCS(=O)(=O)[O-])c3ccc4ccccc4c3C2(C)C)C(C)(C)c2c1ccc1ccccc21` [ICG-alkyne], in data set [1], the Solubility result is “DMSO, DMF, Acetonitrile, Methanol”.
For the compound amanitin, in data set [2], the “cell death with amanitin alone” value is “does not induce cell death”.
